One experiment has as its system BMDC. As to the kind of experiment: Anti-inflammatory activity against R848-stimulated mouse BMDC cells assessed as upregulation of IL-10 production at 5 uM treated for 24 hrs followed by R848 stimulation for 12 hrs by ELISA method (reference value: 100 %). In kind it is functional. The following applies: time 36 hrs. Background: ELISA stands for enzyme-linked immunosorbent assay.

Experiment [1] has as its target CDK8/Cyclin C (Homo sapiens) (UniProt P49336+P24863). Put plainly: Inhibition of recombinant full length His tagged human CDK8/Cyclin C expressed in Baculovirus at 200 nM incubated for 60 mins in presence of ATP by ADP-Glo kinase assay. Background: ADP-Glo turns the ADP formed in a reaction into a luminescent signal.

As usually defined, the inhibition is the share of the control response that was lost under treatment. On to `O=C(Nc1ccccc1F)c1cncc(-c2ccc(C(=O)N3CCNCC3)cc2)c1`, for which the Activity in the experiment on BMDC came to 62%. Further, in experiment [1], the inhibition stood at 55%. For `CC(C)c1cccc(NC(=O)c2cncc(-c3ccc(C(=O)N4CCNCC4)cc3)c2)c1`, the inhibition in experiment [1] is 64%. With `O=C(Nc1cccc(OC(F)(F)F)c1)c1cc(O)cc(-c2ccc(C(=O)N3CCNCC3)cc2)c1`, the Activity with BMDC is reported as 10%. As for `CC(C)c1ccc(NC(=O)c2cc(O)cc(-c3ccc(C(=O)N4CCNCC4)cc3)c2)cc1`, the Activity in the experiment on BMDC is 53%. Moreover, the inhibition in experiment [1] stood at 28%. For `COc1cc(-c2cc(O)c3c(=O)cc(-c4ccccc4)oc3c2)cc(OC)c1OC` the same measures were 78% and 27%. As to `COc1ccc(-c2cc(O)c3c(=O)cc(-c4ccccc4)oc3c2)cc1`, the Activity with BMDC worked out at 76%. Moreover, the inhibition in experiment [1] came to 47%. As for `CC(=O)Nc1cccc(NC(=O)c2cc(O)cc(-c3ccc(C(=O)N4CCNCC4)cc3)c2)c1`, the Activity in the experiment on BMDC is 12%. As for `COc1cccc(NC(=O)c2cc(O)cc(-c3ccc(C(=O)N4CCNCC4)cc3)c2)c1`, the Activity with BMDC is on record as 17%. For the same molecule, the inhibition in experiment [1] came out at 36%. For `O=C(NCc1ccccc1)c1cncc(-c2ccc(C(=O)N3CCNCC3)cc2)c1` the same measures were 72% and 62%. For `Cc1ccc(NC(=O)c2cncc(-c3ccc(C(=O)N4CCNCC4)cc3)c2)cc1` the same measures were 62% and 77%. For `O=C(Nc1cccc(C(F)(F)F)c1)c1cc(O)cc(-c2ccc(C(=O)N3CCNCC3)cc2)c1` the same measures were 19% and 15%. For `O=c1cc(-c2ccccc2)oc2cc(-c3ccsc3)cc(O)c12`, in experiment [1], the inhibition amounted to 6%. Take `O=C(Nc1ccc(F)cc1)c1cncc(-c2ccc(C(=O)N3CCNCC3)cc2)c1`: in the experiment with BMDC, the Activity turned out to be 75%. The inhibition in experiment [1] was 60%. For `Nc1cccc(NC(=O)c2cc(O)cc(-c3ccc(C(=O)N4CCNCC4)cc3)c2)c1` the same measures were 53% and 39%.

`O=c1cc(-c2ccccc2)oc2cc(-c3ccoc3)cc(O)c12`: the Activity with BMDC is 48%. For the same molecule, in experiment [1], the inhibition came out at 29%. On the same counts, the results for `CC(C)c1cccc(NC(=O)c2cc(O)cc(-c3ccc(C(=O)N4CCNCC4)cc3)c2)c1` are 62% and 29%. On the same counts, the results for `O=C(Nc1cccc(F)c1)c1cncc(-c2ccc(C(=O)N3CCNCC3)cc2)c1` are 53% and 42%. On the same counts, the results for `O=C(c1ccc(-c2cc(O)c3c(=O)cc(-c4ccccc4)oc3c2)cc1)N1CCSCC1` are 46% and 19%.

Take `Nc1ccc(NC(=O)c2cc(O)cc(-c3ccc(C(=O)N4CCNCC4)cc3)c2)cc1`: the Activity in the experiment on BMDC is on record as 20%. Also, in experiment [1], the inhibition was 31%. On the same counts, the results for `O=C(Nc1cccc(Cl)c1)c1cncc(-c2ccc(C(=O)N3CCNCC3)cc2)c1` are 39% and 47%. Take `CN1CCN(C(=O)c2ccc(-c3cc(O)c4c(=O)cc(-c5ccccc5)oc4c3)cc2)CC1`: the Activity with BMDC came out at 19%.

On to `CCc1ccc(-c2cc(O)c3c(=O)cc(-c4ccccc4)oc3c2)cc1`, for which the inhibition in experiment [1] was 31%. For the molecule `Cc1cccc(NC(=O)c2cc(O)cc(-c3ccc(C(=O)N4CCNCC4)cc3)c2)c1`, the Activity with BMDC was 76%. In addition, in experiment [1], the inhibition worked out at 20%.

As for `Cc1ccc(NC(=O)c2cc(O)cc(-c3ccc(C(=O)N4CCNCC4)cc3)c2)cc1`, the Activity in the experiment on BMDC is reported as 34%. The inhibition in experiment [1] was determined as 21%. In the case of `CC(=O)Nc1ccccc1NC(=O)c1cncc(-c2ccc(C(=O)N3CCNCC3)cc2)c1`, the Activity in the experiment with BMDC stood at 29%. In addition, in experiment [1], the inhibition is 47%. For `CC(C)c1ccccc1NC(=O)c1cc(O)cc(-c2ccc(C(=O)N3CCNCC3)cc2)c1` the same measures were 23% and 53%. On the same counts, the results for `Nc1cccc(NC(=O)c2cncc(-c3ccc(C(=O)N4CCNCC4)cc3)c2)c1` are 60% and 59%. On the same counts, the results for `CC(=O)Nc1ccc(-c2cc(O)c3c(=O)cc(-c4ccccc4)oc3c2)cc1` are 49% and 54%. `O=C(c1ccc(-c2cc(O)c3c(=O)cc(-c4ccccc4)oc3c2)cc1)N1CCOCC1`: the Activity with BMDC came to 25%. Also, the inhibition in experiment [1] is 6%. For `O=C(NCCc1ccccc1)c1cncc(-c2ccc(C(=O)N3CCNCC3)cc2)c1`, the Activity in the experiment with BMDC is reported as 62%. In addition, in experiment [1], the inhibition was found to be 52%.

On to `CCc1ccc(NC(=O)c2cc(O)cc(-c3ccc(C(=O)N4CCNCC4)cc3)c2)cc1`, for which the Activity in the experiment with BMDC is 72%. In addition, in experiment [1], the inhibition is 48%. For `O=C(Nc1ccc(C(F)(F)F)cc1)c1cncc(-c2ccc(C(=O)N3CCNCC3)cc2)c1` the same measures were 19% and 23%.

On to `Cc1noc(C)c1-c1cc(O)c2c(=O)cc(-c3ccccc3)oc2c1`, for which the Activity with BMDC is given as 30%. Also, the inhibition in experiment [1] was determined as 12%. On the same counts, the results for `Cc1cc(C)c(NC(=O)c2cc(O)cc(-c3ccc(C(=O)N4CCNCC4)cc3)c2)c(C)c1` are 59% and 38%. Regarding `CCN1CCN(C(=O)c2ccc(-c3cc(O)c4c(=O)cc(-c5ccccc5)oc4c3)cc2)CC1`, the Activity in the experiment on BMDC came to 23%. In addition, in experiment [1], the inhibition is 57%. Take `O=c1cc(-c2ccccc2)oc2cc(-c3ccc(CN4CCOCC4)cc3)cc(O)c12`: in the experiment on BMDC, the Activity worked out at 53%. The inhibition in experiment [1] worked out at 43%. For the molecule `CC(C)(C)c1ccc(NC(=O)c2cc(O)cc(-c3ccc(C(=O)N4CCNCC4)cc3)c2)cc1`, the Activity with BMDC stood at 72%. Besides, in experiment [1], the inhibition amounted to 35%.

As for `O=C(Nc1ccc(OC(F)(F)F)cc1)c1cncc(-c2ccc(C(=O)N3CCNCC3)cc2)c1`, in the experiment with BMDC, the Activity was determined as 62%. Also, the inhibition in experiment [1] turned out to be 55%. With `O=C(Nc1cccc(OC(F)(F)F)c1)c1cncc(-c2ccc(C(=O)N3CCNCC3)cc2)c1`, the Activity in the experiment on BMDC turned out to be 48%. Besides, the inhibition in experiment [1] was 44%. For `CN(C)Cc1ccc(-c2cc(O)c3c(=O)cc(-c4ccccc4)oc3c2)cc1` the same measures were 82% and 47%. On the same counts, the results for `Cn1cc(-c2cc(O)c3c(=O)cc(-c4ccccc4)oc3c2)cn1` are 57% and 11%. On the same counts, the results for `O=C(Nc1cccc(F)c1)c1cc(O)cc(-c2ccc(C(=O)N3CCNCC3)cc2)c1` are 26% and 20%.

Turning to `O=C(Nc1ccc(F)cc1)c1cc(O)cc(-c2ccc(C(=O)N3CCNCC3)cc2)c1`, the Activity with BMDC was 42%. Moreover, in experiment [1], the inhibition stood at 12%. For `CN(C)C(=O)c1ccc(-c2cc(O)c3c(=O)cc(-c4ccccc4)oc3c2)cc1`, the Activity with BMDC is recorded as 76%. In experiment [1], the inhibition was 43%.

On to `O=c1cc(-c2ccccc2)oc2cc(-c3ccc(OC(F)(F)F)cc3)cc(O)c12`, for which the Activity with BMDC came out at 44%. The inhibition in experiment [1] came to 48%. For `O=C(NC1CCCCC1)c1cncc(-c2ccc(C(=O)N3CCNCC3)cc2)c1` the same measures were 59% and 53%. Regarding `O=c1cc(-c2ccccc2)oc2cc(-c3ccc(Cl)cc3)cc(O)c12`, the inhibition in experiment [1] was determined as 31%.

The record behind these values is ChEMBL document CHEMBL5154907, “Discovery and Anti-Inflammatory Activity Evaluation of a Novel CDK8 Inhibitor through Upregulation of IL-10 for the Treatment of Inflammatory Bowel Disease In Vivo” (J Med Chem, 2022).
